Reference: patent US20050120403A1, “Inhibition of generative propagation in genetically modified herbicide resistant grasses” (Advanta Seeds B. V., priority 2000, published 2005)
Marks after values point to notes of the source that are not given here.

Key:
[1] = tested on: Lolium perenne L. (perennial ryegrass) AtH1-expressing transformants; assay: Relief of delayed heading by gibberellins (spraying, Long Day conditions); type: in vivo; settings: for Mean Heading Time: transformant (T) plants, 30 mg/L in 5% ethanol + 0.01% Tween-20, sprayed six times over two weeks, days after the first spraying; for effect on heading as compared to non-treated controls: transformant plants, gibberellin 30 mg/L spray
Source text: Primary transformants derived from Lolium perenne L. (perennial ryegrass) using pVDH636 were vernalized and then subjected to Long Day (LD) conditions in the greenhouse (17 hr light/7 hr dark). […] AtH1-expressing plants are generally very leafy (FIG. 10).
Four different gibberellin compounds, which differ in their florigenicity (Evans et al., 1990), were used to treat 34 clones per compound and their effect on heading time of transformants and controls was observed. Gibberellin was applied in solvent (5% ethanol supplemented with 0.01% Tween-20 surfactant) at 30 mg/L. It was applied by spraying six times with about 2-3 ml per plant over two weeks, started one week after the beginning of LD conditions. Mean heading time is shown in days after the first spraying. Non-transformant controls were treated with the solvent only.
Transformant (T) and non-transformant (NT) control plants (Table 5) were treated with the indicated gibberellin. […] Variation between transformants for their sensitivity to gibberellins could be great.

[2] = tested on: Arabidopsis and tobacco overexpressing AtH1; settings: exogenous application; AtH1 overexpression in dicots; cited from earlier work

Row | Compound | Mean Heading Time [1] | effect on heading as compared to non-treated controls [1] | reversal of inhibited flowering phenotype [2]
1 | 16,17-dihydro-GA5 [diHGA5] | 34.2 ^ab days | – | –
2 | C=C1C[C@]23C[C@@]1(O)CC[C@H]2[C@@]12CC=C[C@@](C)(C(=O)O1)[C@H]2[C@@H]3C(=O)O [GA5] | 33.5 ^a days | significantly stimulated heading | –
3 | C=C1C[C@]23C[C@@]1(O)CC[C@H]2[C@@]12C=C[C@H](O)[C@@](C)(C(=O)O1)[C@H]2[C@@H]3C(=O)O [GA3, gibberellic acid] | 34.1 ^ab days | – | can be reversed
4 | C=C1C[C@]23C[C@@]1(O)CC[C@H]2[C@@]12CCC[C@@](C)(C(=O)O1)[C@H]2[C@@H]3C(=O)O [GA20] | 37.8 ^b days | somewhat delayed heading | –
